Results on 11 compounds are retold here after US5874455A, “Method for treatment of cataract with radical scavenger” (priority 1993, dated 1999).

Where two headings read alike, the source gives them in different places.

Data set [1] concerns the target Aldose Reductase from Rat Crystalline Lens (Rattus norvegicus, UniProt P07943). Briefly: biochemical. Type of data set: biochemical. The procedure:
Aldose reductase was prepared from rat lenses in the following manner. Lenses (20 to 30) were homogenized in 20 volumes of 5 mM sodium phosphate buffer (pH 7.4), followed by centrifugation at 18,000×g for 5 min to remove insoluble materials. Solid ammonium sulfate was added to the supernatant fluid to 30% saturation. The suspension was centrifuged at 18,000×g for 10 min and the supernatant was recovered. Aldose reductase was precipitated from 30% saturated solution by the addition of solid ammonium sulfate to 75% saturation, and obtained by centrifugation. The precipitate was collected and suspended in 3.2M ammonium sulfate.
The enzyme solution was assayed by following the absorbance at 340 nm on a Shimadzu UV-2000 spectrophotometer equipped with a temperature-controlled cuvette chamber. The solution (0.1 ml) was added to a cuvette containing phosphate buffer (1.6 ml, pH 6.2, 0.1M final concentration) and NADPH (0.1 ml, 0.25 mM final concentration), and the cuvette was inserted into the spectrophotometer. The reaction was started by the addition of DL-glyceraldehyde (0.1 ml, 50 mM final concentration) to the cuvette, and the decrease of absorbance at 340 nm for 5 min at 25° C. was measured. […] Agents to be tested were dissolved with a minimal amount of dimethylsulfoxide and diluted to the desired concentration with purified water. The resulting solution (0.1 ml) was added to the cuvette. The reference blank (to correct for non-specific oxidation of NADPH and absorption of the agents) was prepared by using water instead of DL-glyceraldehyde solution.

Data set [2] has as its system Diamide-Treated Mice Lenses. Nature of the data set: Na+/K+ ratio and Ca2+ contents in diamide-treated mice lenses. In kind it is cell-based, mouse (ddY). To be noted: for Ca2+ content (in words) / Na+/K+ ratio (in words): 1 Mm (so in the source), vs control levels; for Ca2+ content / K+ content / Na+ content / Na/K ratio: diamide-treated lenses, 1 mM agent. Here is the method: Male ddY mice, 6 weeks old, were killed by decapitation, and the […] were excised. The lenses were removed by a posterior approach and then transferred on a nylon net to a petri dish containing D-MEM medium (low glucose). The lenses were incubated at 37° C. for 19-20 hr in CO2 incubator under 5% CO2 -air and clear transparent lenses were collected to be used for following experiments. The lenses were incubated at 37° C. for 1.5 hr in 3 ml of isotonic HEPES buffer (10 mM HEPES, 136.2 mM NaCl, 5.3 mM KCl, 1.0 mM K2 HPO4, 1.7 mM CaC2 .cndot.2H2 O, 5.5 mM glucose pH 7.4) containing 1 mM diamide and the HEPES buffer without glucose. Those were transferred to an incubation test tube containing 3 ml of isotonic HEPES buffer (pH 7.4) with 1 mM DDC or GE. The diamide treated and non-treated controls were treated by the 5 hr-incubation without the above agents. The wet weight of these treated lenses were determined. Lenses were dried in vacuo at 100° C. for 8 hr, and then digested in 60% nitric acid (100 μl/lens) at 80° C. to degrade organic substances. One milliliter of purified water was added to the digests, and centrifuged at 3000×g for 10 min. Two tenth ml of the supernatant was mixed with 2 ml of purified water, and was used for measurement of Na^+ and K^+. One tenth milliliter of 100 μg/ml lanthanum chloride was added to the residual supernatant and used for measurement of Ca^2+, Na^+,K^+ and Ca^2+ contents in the lenses were determined by atomic absorption spectrometer (Hitachi 180-80, Tokyo, Japan).

In data set [3] the test system is Diamide-Treatment Mice Lenses. Briefly: GSH content in diamide-treated mice lenses. To be noted: for GSH content: 1 mM diamide. In kind it is cell-based, mouse (ddY). The procedure: Male ddY mice, 6 weeks old, were killed by decapitation, and the globes were excised. The lenses were removed by a posterior approach and then transferred on a nylon net to an petri containing D-MEM medium (low glucose). The lenses were incubated at 37 ° C. for […] and clear transparent lenses were collected to be used for following experiments. […] Those were transferred to an incubation test tube containing 3 ml of isotonic HEPES buffer (pH 7.4) containing 5.5 mM glucose with 1 mM DDC or GE (glutathione isopropyl ester). The diamide treated and non-treated controls were treated by the 5 hr--incubation without the above agents. The wet weight of these treated lenses were determined.
The treated lenses were homogenized with 0.5 ml of purified water by Teflon homogenizer. GSH in the homogenate was determined by the method of Beutler using DTNB and the HPLC method followed.
Fifty microliter of the lens homogenate were added into 100 μl of acetonitrile containing 100 μg of sodium pantothenate (internal standard) and centrifuged at 12,000 rpm for 10 min. The supernatant solution (10 μl) was injected into a HPLC apparatus, Shimadzu LC-10AD equipped with a column oven, CTO-6A and the chromatography were performed under the conditions: a column of Supersphere 100RP-18 (particle size: 4 μm, column size: 4.0×250 mm), mobile phase of 5% methanol containing 1.0% TFA, flow rate of 1 ml/min, and column temperature at 35° C.

A further data set deals with rabbit cornea. Nature of the data set: In vitro transcorneal penetration of DDC from liposomes. Type of data set: in vitro ADME. Here is the method: Male rabbit, 2.0 kg of body weight was sacrificed by a injection of lethal dose of pentobarbital into a […] and then two eyeballs were removed from […]. The cornea was set to the cell in which donor side was filled with liposomes containing DSF and in reservoir side with 10 mM HEPES buffer (pH 7.4) containing 136 mM NaCl, 5.3 mM KCl, 1.0 mM K2 HPO4, 1.7 mM CaCl2 and 5.5 mM glucose, shown in FIG. 2. The penetration was carried out at 37° C. for 0-6 hr. The sample (50 μl) was withdrawn from reservoir side at the indicated times. DDC in the sample was determined by the HPLC method (FIG. 2).

The mark [4] stands for this setting: pH 6.2, 25° C., DL-glyceraldehyde substrate, read-out: IC50.

The term IC50 denotes the midpoint of a concentration-inhibition curve. With `N[C@@H](CCC(=O)N[C@@H](CS)C(=O)NCC(=O)O)C(=O)O` [Glutathione (GSH), Glutathione], the IC50 in data set [1] (setting [4]) turned out to be 1550 µM.
Take `C[C@@H]1O[C@@H](Oc2c(-c3ccc(O)c(O)c3)oc3cc(O)cc(O)c3c2=O)[C@H](O)[C@H](O)[C@H]1O` [Quercitrin]: in data set [1], 0.26 µM corresponded to half-maximal inhibition (IC50) and the “inhibitory activity against rat lens aldose reductase (in words)” value was “lower inhibitory activities”.
For the compound `O[C@H](CS)[C@H](O)CS` (relative stereo) [DTT], in data set [2], the “Ca2+ content (in words)” value is “restored completely” and the “Na+/K+ ratio (in words)” value is given as “restored completely”.
On to `O=C(O)c1cc(O)c2c3nc4ccccc4oc-3cc(=O)c2n1` [Pirenoxine (Catalin), Pirenoxine], for which, in data set [1], the “inhibitory activity against rat lens aldose reductase (in words)” value is reported as “lower inhibitory activities”. The IC50 in data set [1] (setting [4]) was found to be 17.5 µM.
With `CCN(CC)C(=S)[S-].[Na+]` [DDC-Na, Sodium diethyldithiocarbamate], in data set [1], the IC50 was found to be 2600 µM. For the same compound, the GSH content in data set [3] (DTNB method, 1 mM agent) came to 9.8 μg/lens. The compound further showed a GSH content in data set [3] (HPLC method, 1 mM agent) of 3.9 μg/lens. Also, in data set [2], the “Ca2+ content” value is recorded as 1.09 ± 0.33 mmol/kg of H2 O, the “K+ content” value is on record as 86.25 ± 4.02 mmol/kg of H2 O, the “Na+ content” value was 36.56 ± 4.38 mmol/kg of H2 O and the Na/K ratio was found to be 0.43 ± 0.07.
Take `CC(S)C(=O)NCC(=O)O` (stereo not shown) [Tiopronin]: the IC50 in data set [1] (setting [4]) came out at 1350 µM.
For the compound `CCN(CC)C(=S)S` [DDC, Diethyldithiocarbamate], the “DDC content in the reservoir solution relative to that at pH 8.0” value with rabbit cornea (pH 6.5, six hours after incubation) was “one third”. In the data set with rabbit cornea (pH 8.0, 1.75% BSA in donor solution), the “effect of BSA on DDC penetration (in words)” value was “did not affect”.
For `CC(=C(CCO)SSCC1CCCO1)N(C=O)Cc1cnc(C)nc1N` (stereo in doubt) [Frusultiamine (Alinamine F), Frusultiamine], the IC50 in data set [1] (setting [4]) came out at 1000 µM.
Turning to `CC(C)OC(=O)CNC(=O)[C@H](CS)NC(=O)CC[C@H](N)C(=O)O` [GE, Glutathione isopropyl ester], the “inhibitory activity against rat lens aldose reductase (in words)” value in data set [1] is “lower inhibitory activities”. The IC50 in data set [1] (setting [4]) turned out to be 760 µM. In data set [3] (DTNB method, 1 mM agent), the “total GSH in diamide-treated lenses (in words)” value is listed as “restored by the control GSH level” and the GSH content worked out at 10.3 μg/lens. Also, the “restoring of GSH (in words)” value in data set [3] (HPLC method) is “restoring of GSH”. Also, in data set [3] (HPLC method, 1 mM agent), the GSH content was determined as 4.0 μg/lens. Moreover, in data set [2], the “Ca2+ content (in words)” value is reported as “restored completely”, the “Na+/K+ ratio (in words)” value was “restored completely”, the “Ca2+ content” value was 1.39 ± 0.30 mmol/kg of H2 O and the “K+ content” value is reported as 79.67 ± 8.63 mmol/kg of H2 O. In addition, in data set [2], the “Na+ content” value was 51.60 ± 9.57 mmol/kg of H2 O and the Na/K ratio was 0.67 ± 0.20.
As to `CO[C@@]1(NC(=O)CSCC#N)C(=O)N2C(C(=O)O)=C(CSc3nnnn3C)CS[C@@H]21` [CMZ, cefmetazole], the “inhibitory activity against rat lens aldose reductase (in words)” value in data set [1] is listed as “lower inhibitory activities”. Besides, the IC50 in data set [1] (setting [4]) came out at 450 µM. For the same compound, in data set [2], the “Ca2+ content (in words)” value is recorded as “restored completely”, the “Na+/K+ ratio (in words)” value is “restored completely”, the “Ca2+ content” value is reported as 1.11 ± 0.36 mmol/kg of H2 O and the “K+ content” value is 84.91 ± 10.06 mmol/kg of H2 O. Also, in data set [2], the “Na+ content” value is on record as 40.59 ± 10.16 mmol/kg of H2 O and the Na/K ratio was found to be 0.50 ± 0.19.
`CCN(CC)C(=S)SSC(=S)N(CC)CC` [DSF, tetraethylthiuram disulfide]: the “inhibitory activity against rat lens aldose reductase (in words)” value in data set [1] is reported as “lower inhibitory activities”. For the same compound, the IC50 in data set [1] (setting [4]) was found to be 120 µM.
